Reference: US20110015067A1, “Herbicidal Compositions Comprising Pyroxasulfone” (BASF SE, priority 2008, published 2011)

Key:
Assay type in all cases: in vivo
[1] = test system: CHEAL (Chenopodium album); test: post-emergence greenhouse test; conditions: 15 g ai/ha
Excerpt: (§1) For the post-emergence treatment, the test plants were first grown to a height of 3 to 20 cm, depending on the plant habit, and only then treated. Here, the herbicidal compositions were suspended or emulsified in water as distribution medium and sprayed using finely distributing nozzles.
(§2) The respective herbicides A and/or safener were formulated as 10% by weight strength suspension concentrate and introduced to the spray liquor with the amount of solvent system used for applying the active compound. Herbicide B and/or safener were used as commercially available formulations and introduced to the spray liquor with the amount of solvent system used for applying the active compound. In the examples, the solvent used was water.
(§3) The test period extended over 20 days. During this time, the plants were tended, and their response to the treatments with active compound was evaluated.
(§4) In the following experiments, the herbicidal activity for the individual herbicide compounds (solo application) and of the mixture was assessed 8 days after treatment (8 DAT) and/or 20 days after treatment (20 DAT).
(§5) The evaluation for the damage caused by the chemical compositions was carried out using a scale from 0 to 100%, compared to the untreated control plants. Here, 0 means no damage and 100 means complete destruction of the plants.

[2] = test system: ALOMY (Alopecurus myosuroides); test: post-emergence greenhouse test
Excerpt: as §1, §2, §3, §4, §5

[3] = test system: PHBPU (Ipomoea purpurea); test: pre-emergence greenhouse test
Excerpt: (§6) For the pre-emergence treatment, directly after sowing the active compounds, which had been suspended or emulsified in water, were applied by means of finely distributed nozzles. The containers were irrigated gently to promote germination and growth and subsequently covered with transparent plastic hoods until plant had rooted. This cover caused uniform germination of the tests plants, unless this was adversely affected by active compounds.
as §2, §3, §4, §5

[4] = test system: PANDI (Panicum dichotomiflorum); test: pre-emergence greenhouse test; conditions: PANDI pre-emergence 7.5 g ai/ha
Excerpt: as §6, §2, §3, §4, §5

[5] = test system: ECHCG (Echinochloa crus-galli); test: pre-emergence greenhouse test
Excerpt: as §6, §2, §3, §4, §5

[6] = test system: BRAPL (Brachiaria plantaginea); test: pre-emergence greenhouse test; conditions: BRAPL pre-emergence 7.5 g ai/ha
Excerpt: as §6, §2, §3, §4, §5

[7] = test system: COMBE (Commelina benghalensis); test: pre-emergence greenhouse test; conditions: for observed activity in % destruction: pre-emergence
Excerpt: as §6, §2, §3, §4, §5

[8] = test system: ALOMY (Alopecurus myosuroides); test: pre-emergence greenhouse test; conditions: for observed activity in % destruction: pre-emergence, 7.5 g ai/ha
Excerpt: as §6, §2, §3, §4, §5

[9] = test system: SETFA (Setaria faberii); test: pre-emergence greenhouse test
Excerpt: as §6, §2, §3, §4, §5

[10] = test system: SETVI (Setaria viridis); test: pre-emergence greenhouse test
Excerpt: as §6, §2, §3, §4, §5

[11] = test system: AMARE (Amaranthus retroflexus); test: pre-emergence greenhouse test
Excerpt: as §6, §2, §3, §4, §5

[12] = test system: PANMI (Panicum milliaceum); test: pre-emergence greenhouse test
Excerpt: as §6, §2, §3, §4, §5

[13] = test system: ERBVI; test: pre-emergence greenhouse test
Excerpt: as §6, §2, §3, §4, §5

[14] = test system: AMBEL (Ambrosia artemisifolia); test: pre-emergence greenhouse test; conditions: for observed activity in % destruction: pre-emergence, 15 g ai/ha
Excerpt: as §6, §2, §3, §4, §5

[15] = test system: SOLNI (Solanum nigrum); test: pre-emergence greenhouse test; conditions: for observed activity in % destruction: pre-emergence, 7.5 g ai/ha
Excerpt: as §6, §2, §3, §4, §5

[16] = ECHCG pre-emergence 7.5 g ai/ha
[17] = COMBE pre-emergence 3.75 g ai/ha
[18] = COMBE pre-emergence 7.5 g ai/ha
[19] = ALOMY pre-emergence 3.75 g ai/ha
[20] = ALOMY pre-emergence 7.5 g ai/ha
[21] = SETVI pre-emergence 3.75 g ai/ha
[22] = AMARE pre-emergence 3.75 g ai/ha
[23] = AMARE pre-emergence 7.5 g ai/ha
[24] = SOLNI pre-emergence 7.5 g ai/ha

## COCc1cnc(C2=NC(C)(C(C)C)C(=O)N2)c(C(=O)O)c1 (stereo not shown) [imazamox]
[1]; 8 DAT
  observed activity in % destruction: 0%
[1]; 20 DAT
  observed activity in % destruction: 0%
[2]; 3.75 g ai/ha, 8 DAT
  observed activity in % destruction: 25%
[2]; 3.75 g ai/ha, 20 DAT
  observed activity in % destruction: 30%
[2]; 7.5 g ai/ha, 8 DAT
  observed activity in % destruction: 35%
[2]; 7.5 g ai/ha, 20 DAT
  observed activity in % destruction: 35%
[3]; PHBPU pre-emergence 7.5 g ai/ha
  observed % destruction 20 DAT: 20%
[3]; PHBPU pre-emergence 15 g ai/ha
  observed % destruction 20 DAT: 70%
[4]
  observed % destruction 8 DAT: 20%
  observed % destruction 20 DAT: 75%
[5]; ECHCG pre-emergence 3.75 g ai/ha
  observed % destruction 20 DAT: 0%
[5]; [16]
  observed % destruction 8 DAT: 20%
  observed % destruction 20 DAT: 10%
[5]; ECHCG pre-emergence 15 g ai/ha
  observed % destruction 8 DAT: 60%
  observed % destruction 20 DAT: 75%
[6]
  observed % destruction 8 DAT: 0%
  observed % destruction 20 DAT: 45%
[7]; [17]
  observed % destruction 8 DAT: 20%
  observed % destruction 20 DAT: 30%
[7]; [18]
  observed % destruction 8 DAT: 40%
  observed % destruction 20 DAT: 35%
[7]; COMBE pre-emergence 15 g ai/ha
  observed % destruction 8 DAT: 50%
  observed % destruction 20 DAT: 75%
[7]; 3.75 g ai/ha, 8 DAT
  observed activity in % destruction: 20%
[7]; 3.75 g ai/ha, 20 DAT
  observed activity in % destruction: 30%
[7]; 7.5 g ai/ha, 8 DAT
  observed activity in % destruction: 40%
[7]; 7.5 g ai/ha, 20 DAT
  observed activity in % destruction: 35%
[8]; [19]
  observed % destruction 8 DAT: 20%
  observed % destruction 20 DAT: 40%
[8]; [20]
  observed % destruction 8 DAT: 30%
  observed % destruction 20 DAT: 40%
[8]; ALOMY pre-emergence 15 g ai/ha
  observed % destruction 8 DAT: 50%
  observed % destruction 20 DAT: 80%
[8]; 8 DAT
  observed activity in % destruction: 30%
[8]; 20 DAT
  observed activity in % destruction: 40%
[9]; SETFA pre-emergence 3.75 g ai/ha
  observed % destruction 20 DAT: 30%
[9]; SETFA pre-emergence 7.5 g ai/ha
  observed % destruction 20 DAT: 60%
[9]; SETFA pre-emergence 15 g ai/ha
  observed % destruction 20 DAT: 85%
[10]; [21]
  observed % destruction 8 DAT: 0%
  observed % destruction 20 DAT: 20%
[10]; SETVI pre-emergence 7.5 g ai/ha
  observed % destruction 20 DAT: 90%
[10]; SETVI pre-emergence 15 g ai/ha
  observed % destruction 8 DAT: 85%
  observed % destruction 20 DAT: 95%
[11]; [22]
  observed % destruction 8 DAT: 20%
  observed % destruction 20 DAT: 30%
[11]; [23]
  observed % destruction 8 DAT: 55%
  observed % destruction 20 DAT: 80%
[11]; AMARE pre-emergence 15 g ai/ha
  observed % destruction 8 DAT: 65%
  observed % destruction 20 DAT: 95%
[12]; PANMI pre-emergence 3.75 g ai/ha
  observed % destruction 20 DAT: 20%
[12]; PANMI pre-emergence 7.5 g ai/ha
  observed % destruction 20 DAT: 30%
[13]; ERBVI pre-emergence 3.75 g ai/ha
  observed % destruction 20 DAT: 0%
[13]; ERBVI pre-emergence 7.5 g ai/ha
  observed % destruction 20 DAT: 0%
[13]; ERBVI pre-emergence 15 g ai/ha
  observed % destruction 20 DAT: 20%
[14]; AMBEL pre-emergence 15 g ai/ha
  observed % destruction 8 DAT: 50%
  observed % destruction 20 DAT: 80%
[14]; 8 DAT
  observed activity in % destruction: 50%
[14]; 20 DAT
  observed activity in % destruction: 80%
[15]; SOLNI pre-emergence 3.75 g ai/ha
  observed % destruction 20 DAT: 20%
[15]; [24]
  observed % destruction 8 DAT: 30%
  observed % destruction 20 DAT: 80%
[15]; SOLNI pre-emergence 15 g ai/ha
  observed % destruction 20 DAT: 85%
[15]; 8 DAT
  observed activity in % destruction: 30%
[15]; 20 DAT
  observed activity in % destruction: 80%
